Measured values published in patent US20210393932A1, “DERMAL PATCHES AND GLASS SWABS FOR APPLICATION OF TOPICAL IMMUNOSENSITIZERS” (Squarex, LLC, priority 2020, published 2021).

How the values were obtained:
[1] = tested on: herpes labialis outbreaks; experiment: Placebo-controlled Phase 1 clinical trial of SADBE in subjects with frequent herpes labialis outbreaks; assay type: in vivo, human
Description: Methods This exploratory, double-blind, randomized placebo-controlled study was conducted between November 2013 and September 2015 at Massachusetts General Hospital. Healthy adults, ages 18 to 69 years, who self-reported having 6 or more episodes of herpes labialis in the previous 12 months received a topical sensitization dose on the arm at the initial visit, and then received a topical treatment dose applied to a lesion during the first 2 herpes labialis episodes occurring at least 2 weeks after the sensitization dose. Participants were randomized 1:1:1 to receive dimethyl sulfoxide alone (placebo), 2.0% SADBE sensitization and 0.5% SADBE treatment doses, or 2.0% SADBE sensitization, 0.2% SADBE treatment doses. The study was approved by Partners Human Research Committee institutional review board, and all participants provided their written informed consent (clinicaltrials.gov identification No. NCT01971385). Results. Fifty-four patients were enrolled into the study; 43 patients had at least 1 form of contact (either in person or by phone) with research staff following the sensitizing dose and were included in the efficacy data analysis. The data analyzed involves 9 males and 34 females.
One planned primary end point was days to the next herpes labialis outbreak after the last treatment dose. […] Thus, we analyzed time to next outbreak after the sensitization dose. Data from patients who never experienced a first outbreak following sensitization were censored on the last available follow-up date and Kaplan-Meier time-to-event curves were estimated and graphed (FIG. 3). The median time to event for the placebo group was 40 days versus more than 122 days for the 2.0% SADBE group, which difference was highly significant (P=0.009).

[2] = HPLC analysis of test article vials and patch controls in air (guinea pig study); assay type: physicochemical
Description: Squaric acid dibutyl ester (SADBE) at 2% (w/v) concentration in dimethylsulfoxide (DMSO) was added to a skin patch for dermal dosing of SADBE to test for a delayed-type hypersensitivity response or other skin irritation. In the laboratories of Squarex HPLC analysis was conducted to analyze for SADBE content, for analysis of the dose formulation prepared by APS and to determine stability of the test article in the dermal patches during the application time and to test for residual SADBE in the dermal patches after 12 hours applied to the animals.
The skin patches consisted of a polymer backing layer similar to 3M 9916 polyester nonwoven backing layer with adhesive, 3M 9733 polyester film laminate barrier layer, and Precision Fabrics Group 0700-00010 polyester gauze layer. The gauze was heat sealed to the barrier layer. The gauze patch area was 1.53 cm^2.
The tubes of DMSO with patches were transported to the Squarex laboratory, shaken at 200 rpm for 1 hour or more, and then the DMSO from each tube was placed in an injection vial and analyzed for SADBE content by HPLC on a C18 column with the program SADBE3-50 ul. SADBE elutes in this program at about 24.0 minutes and absorbs at 255 nm, so the area of the 24.0 min peak at 255 nm was used to quantify SADBE. The SADBE degradation product squaric acid monobutyl ester (SAMBE) was also quantified by 255 nm area under the curve at the elution time of 12.7 minutes.
The test article vials of 2%, 6%, and 18% SADBE dissolved in DMSO complied with specifications and had the predicted concentrations of SADBE at 24 hours after preparation.
The results indicated the SADBE was stable for more than 12 hours in the patches when not exposed to animal skin. There was no apparent loss of SADBE or conversion of SADBE to SAMBE.

[3] = 2% patch control, 20 ul, >12 hours in air
[4] = 2% vial, SADBE in DMSO, 24 hours after preparation
[5] = 6% patch control, 20 ul, >12 hours in air
[6] = 6% vial, SADBE in DMSO, 24 hours after preparation
[7] = 18% patch control, 20 ul, >12 hours in air
[8] = 18% vial, SADBE in DMSO, 24 hours after preparation

## CCCCOc1c(OCCCC)c(=O)c1=O [SADBE, squaric acid dibutyl ester]
[1]; 2.0% SADBE sensitization dose on arm, Kaplan-Meier, placebo 40 days, P=0.009
  median time to next herpes labialis outbreak after the sensitization dose: more than 122 days
[1]; 2.0% SADBE, placebo 2 patients
  adverse event: itching and redness at the sensitization site: 13 patients
[1]; exposed to the SADBE sensitization dose for 24 hours
  adverse event: autosensitization dermatitis: 1 patient
[1]; overall, patients
  tolerability: well tolerated
[1]; patients who received 2.0% SADBE for sensitization
  patients who did not experience another outbreak after sensitization: 16 of 28
[2]; [3]
  % of expected SADBE: 106.0%
  SAMBE as percent of SADBE: 0.95%
[2]; [4]
  % of expected SADBE: 97.5%
  SAMBE as percent of SADBE: 0.84%
[2]; [5]
  % of expected SADBE: 94.5%
  SAMBE as percent of SADBE: 1.05%
[2]; [6]
  % of expected SADBE: 102.9%
  SAMBE as percent of SADBE: 0.83%
[2]; [7]
  % of expected SADBE: 100.3%
  SAMBE as percent of SADBE: 1.01%
[2]; [8]
  % of expected SADBE: 97.7%
  SAMBE as percent of SADBE: 0.91%
[2]; patches not exposed to animal skin, no apparent loss or conversion to SAMBE
  time SADBE was stable in the patches: more than 12 hours
